According to ChEMBL document CHEMBL1649265, “Antimicrobial susceptibilities of Mycoplasma genitalium strains examined by broth dilution and quantitative PCR” (2009):
≈ marks a conversion by molar mass, not a printed value.

How the values were obtained:
Type in all cases: functional
Conditions in all cases: Mycoplasmoides genitalium
Mycoplasma genitalium [1] = test: Antibacterial activity against Mycoplasma genitalium M6257 by broth dilution method
Mycoplasma genitalium [2] = test: Antibacterial activity against Mycoplasma genitalium by broth dilution method
Mycoplasma genitalium [3] = test: Antibacterial activity against Mycoplasma genitalium M6090 by broth dilution method
Mycoplasma genitalium [4] = test: Antibacterial activity against Mycoplasma genitalium M30 by broth dilution method
Mycoplasma genitalium [5] = test: Antibacterial activity against Mycoplasma genitalium M6328 by broth dilution method
Mycoplasma genitalium [6] = test: Antibacterial activity against Mycoplasma genitalium TW10-5G by broth dilution method
Mycoplasma genitalium [7] = test: Antibacterial activity against Mycoplasma genitalium M6284 by broth dilution method
Mycoplasma genitalium [8] = test: Antibacterial activity against Mycoplasma genitalium M6285 by broth dilution method
Mycoplasma genitalium [9] = test: Antibacterial activity against Mycoplasma genitalium M6283 by broth dilution method
Mycoplasma genitalium [10] = test: Antibacterial activity against Mycoplasma genitalium M2321 by broth dilution method
Mycoplasma genitalium [11] = test: Antibacterial activity against Mycoplasma genitalium M6287 by broth dilution method
Mycoplasma genitalium [12] = test: Antibacterial activity against Mycoplasma genitalium UTMB-10G by broth dilution method
Mycoplasma genitalium [13] = test: Antibacterial activity against Mycoplasma genitalium by quantitative TaqMan PCR method
Mycoplasma genitalium [14] = test: Antibacterial activity against Mycoplasma genitalium R32 by broth dilution method
Mycoplasma genitalium [15] = test: Antibacterial activity against Mycoplasma genitalium M6286 by broth dilution method
Mycoplasma genitalium [16] = test: Antibacterial activity against Mycoplasma genitalium TW10-6G by broth dilution method
Mycoplasma genitalium [17] = test: Antibacterial activity against Mycoplasma genitalium M6280 by broth dilution method
Mycoplasma genitalium [18] = test: Antibacterial activity against Mycoplasma genitalium M2282 by broth dilution method
Mycoplasma genitalium [19] = test: Antibacterial activity against Mycoplasma genitalium M6282 by broth dilution method
Mycoplasma genitalium [20] = test: Antibacterial activity against Mycoplasma genitalium G37 by broth dilution method
Mycoplasma genitalium [21] = test: Antibacterial activity against Mycoplasma genitalium TW48-5G by broth dilution method
Mycoplasma genitalium [22] = test: Antibacterial activity against Mycoplasma genitalium M6151 by broth dilution method
Mycoplasma genitalium [23] = test: Antibacterial activity against Mycoplasma genitalium M2300 by broth dilution method
Mycoplasma genitalium [24] = test: Antibacterial activity against Mycoplasma genitalium M2341 by broth dilution method

Compound | MIC (Mycoplasma genitalium [1]) [µg/mL] | MIC (Mycoplasma genitalium [3]) [µg/mL] | MIC (Mycoplasma genitalium [4]; read-out: MIC) [µg/mL] | MIC (Mycoplasma genitalium [5]) [µg/mL] | MIC (Mycoplasma genitalium [6]; read-out: MIC) [µg/mL] | MIC (Mycoplasma genitalium [7]) [µg/mL] | MIC (Mycoplasma genitalium [8]) [µg/mL] | MIC (Mycoplasma genitalium [9]) [µg/mL] | MIC (Mycoplasma genitalium [10]) [µg/mL] | MIC (Mycoplasma genitalium [11]) [µg/mL] | MIC (Mycoplasma genitalium [12]; read-out: MIC) [µg/mL] | MIC50 (Mycoplasma genitalium [13]) [µg/mL] | MIC90 (Mycoplasma genitalium [13]) [µg/mL] | MIC (Mycoplasma genitalium [14]; read-out: MIC) [µg/mL] | MIC (Mycoplasma genitalium [15]) [µg/mL] | MIC (Mycoplasma genitalium [16]; read-out: MIC) [µg/mL] | MIC (Mycoplasma genitalium [17]) [µg/mL] | MIC (Mycoplasma genitalium [18]) [µg/mL] | MIC (Mycoplasma genitalium [19]) [µg/mL] | MIC (Mycoplasma genitalium [20]; read-out: MIC) [µg/mL] | also measured
CN(C)c1ccc(O)c2c1C[C@H]1C[C@H]3[C@H](N(C)C)C(O)=C(C(N)=O)C(=O)[C@@]3(O)C(O)=C1C2=O [MINOCYCLINE] | 0.063 (≈ 0.138 µM) | 0.063 (≈ 0.138 µM) | 0.031 (≈ 0.0678 µM) | 0.063 (≈ 0.138 µM) | 0.031 (≈ 0.0678 µM) | 0.063 (≈ 0.138 µM) | 0.063 (≈ 0.138 µM) | 0.063 (≈ 0.138 µM) | 0.063 (≈ 0.138 µM) | 0.063 (≈ 0.138 µM) | 0.031 (≈ 0.0678 µM) |  |  | 0.031 (≈ 0.0678 µM) | 0.063 (≈ 0.138 µM) | 0.031 (≈ 0.0678 µM) | 0.063 (≈ 0.138 µM) | 0.063 (≈ 0.138 µM) | 0.063 (≈ 0.138 µM) | 0.031 (≈ 0.0678 µM) | MIC50 (Mycoplasma genitalium [2]; read-out: MIC50): 0.125 µg/mL (≈ 0.273 µM); MIC90 (Mycoplasma genitalium [2]; read-out: MIC90): 0.25 µg/mL (≈ 0.546 µM); MIC (Mycoplasma genitalium [21]; read-out: MIC): 0.031 µg/mL (≈ 0.0678 µM); MIC (Mycoplasma genitalium [22]): 0.063 µg/mL (≈ 0.138 µM); MIC (Mycoplasma genitalium [23]): 0.063 µg/mL (≈ 0.138 µM); MIC (Mycoplasma genitalium [24]): 0.063 µg/mL (≈ 0.138 µM)
CCn1cc(C(=O)O)c(=O)c2cc(F)c(N3CCNCC3)cc21 [NORFLOXACIN] | 0.001 (≈ 0.00313 µM) | 0.001 (≈ 0.00313 µM) | 0.032 (≈ 0.1 µM) | 0.001 (≈ 0.00313 µM) | 0.032 (≈ 0.1 µM) | 0.001 (≈ 0.00313 µM) | 0.001 (≈ 0.00313 µM) | 0.001 (≈ 0.00313 µM) | 0.001 (≈ 0.00313 µM) | 0.001 (≈ 0.00313 µM) | 0.032 (≈ 0.1 µM) | ≥ 8 | ≥ 8 | 0.032 (≈ 0.1 µM) | 0.001 (≈ 0.00313 µM) | 0.032 (≈ 0.1 µM) | 0.001 (≈ 0.00313 µM) | 0.001 (≈ 0.00313 µM) | 0.001 (≈ 0.00313 µM) | 0.032 (≈ 0.1 µM) | MIC50 (Mycoplasma genitalium [2]; read-out: MIC50): 0.032 µg/mL (≈ 0.1 µM); MIC90 (Mycoplasma genitalium [2]; read-out: MIC90): 0.064 µg/mL (≈ 0.2 µM); MIC (Mycoplasma genitalium [21]; read-out: MIC): 0.032 µg/mL (≈ 0.1 µM); MIC (Mycoplasma genitalium [22]): 0.001 µg/mL (≈ 0.00313 µM); MIC (Mycoplasma genitalium [23]): 0.001 µg/mL (≈ 0.00313 µM); MIC (Mycoplasma genitalium [24]): 0.001 µg/mL (≈ 0.00313 µM)
CC[C@H]1OC(=O)[C@H](C)[C@@H](O[C@H]2C[C@@](C)(OC)[C@@H](O)[C@H](C)O2)[C@H](C)[C@@H](O[C@@H]2O[C@H](C)C[C@H](N(C)C)[C@H]2O)[C@](C)(O)C[C@@H](C)CN(C)[C@H](C)[C@@H](O)[C@]1(C)O [AZITHROMYCIN] |  |  |  |  |  |  |  |  |  |  |  | 0.004 (≈ 0.00534 µM) | 0.008 (≈ 0.0107 µM) |  |  |  |  |  |  |  | MIC50 (Mycoplasma genitalium [2]): 0.001 µg/mL (≈ 0.00134 µM); MIC90 (Mycoplasma genitalium [2]): 0.002 µg/mL (≈ 0.00267 µM); MIC (Mycoplasma genitalium [4]): 0.001 µg/mL (≈ 0.00134 µM); MIC (Mycoplasma genitalium [6]): 0.001 µg/mL (≈ 0.00134 µM); MIC (Mycoplasma genitalium [12]): 0.001 µg/mL (≈ 0.00134 µM); MIC (Mycoplasma genitalium [14]): 0.001 µg/mL (≈ 0.00134 µM); MIC (Mycoplasma genitalium [16]): 0.001 µg/mL (≈ 0.00134 µM); MIC (Mycoplasma genitalium [20]): 0.001 µg/mL (≈ 0.00134 µM); MIC (Mycoplasma genitalium [21]): 0.001 µg/mL (≈ 0.00134 µM)

Second part, led by results:

MIC (Mycoplasma genitalium [1]) [µg/mL] | MIC (Mycoplasma genitalium [3]) [µg/mL] | MIC (Mycoplasma genitalium [4]; read-out: MIC) [µg/mL] | MIC (Mycoplasma genitalium [5]) [µg/mL] | MIC (Mycoplasma genitalium [6]; read-out: MIC) [µg/mL] | MIC (Mycoplasma genitalium [7]) [µg/mL] | MIC (Mycoplasma genitalium [8]) [µg/mL] | MIC (Mycoplasma genitalium [9]) [µg/mL] | MIC (Mycoplasma genitalium [10]) [µg/mL] | MIC (Mycoplasma genitalium [11]) [µg/mL] | MIC (Mycoplasma genitalium [12]; read-out: MIC) [µg/mL] | MIC50 (Mycoplasma genitalium [13]) [µg/mL] | MIC90 (Mycoplasma genitalium [13]) [µg/mL] | MIC (Mycoplasma genitalium [14]; read-out: MIC) [µg/mL] | MIC (Mycoplasma genitalium [15]) [µg/mL] | MIC (Mycoplasma genitalium [16]; read-out: MIC) [µg/mL] | MIC (Mycoplasma genitalium [17]) [µg/mL] | MIC (Mycoplasma genitalium [18]) [µg/mL] | MIC (Mycoplasma genitalium [19]) [µg/mL] | MIC (Mycoplasma genitalium [20]; read-out: MIC) [µg/mL] | Compound | also measured
0.016 (≈ 0.0399 µM) | 0.016 (≈ 0.0399 µM) | 0.063 (≈ 0.157 µM) | 0.016 (≈ 0.0399 µM) | 0.063 (≈ 0.157 µM) | 0.016 (≈ 0.0399 µM) | 0.016 (≈ 0.0399 µM) | 0.016 (≈ 0.0399 µM) | 0.016 (≈ 0.0399 µM) | 0.016 (≈ 0.0399 µM) | 0.063 (≈ 0.157 µM) | 0.063 (≈ 0.157 µM) | 0.125 (≈ 0.311 µM) | 0.063 (≈ 0.157 µM) | 0.016 (≈ 0.0399 µM) | 0.063 (≈ 0.157 µM) | 0.016 (≈ 0.0399 µM) | 0.016 (≈ 0.0399 µM) | 0.016 (≈ 0.0399 µM) | 0.063 (≈ 0.157 µM) | COc1c(N2C[C@@H]3CCCN[C@@H]3C2)c(F)cc2c(=O)c(C(=O)O)cn(C3CC3)c12 [MOXIFLOXACIN] | MIC50 (Mycoplasma genitalium [2]; read-out: MIC50): 0.063 µg/mL (≈ 0.157 µM); MIC90 (Mycoplasma genitalium [2]; read-out: MIC90): 0.125 µg/mL (≈ 0.311 µM); MIC (Mycoplasma genitalium [21]; read-out: MIC): 0.063 µg/mL (≈ 0.157 µM); MIC (Mycoplasma genitalium [22]): 0.016 µg/mL (≈ 0.0399 µM); MIC (Mycoplasma genitalium [23]): 0.016 µg/mL (≈ 0.0399 µM); MIC (Mycoplasma genitalium [24]): 0.016 µg/mL (≈ 0.0399 µM)
0.031 (≈ 0.0826 µM) | 0.031 (≈ 0.0826 µM) | 0.125 (≈ 0.333 µM) | 0.031 (≈ 0.0826 µM) | 0.125 (≈ 0.333 µM) | 0.031 (≈ 0.0826 µM) | 0.031 (≈ 0.0826 µM) | 0.031 (≈ 0.0826 µM) | 0.031 (≈ 0.0826 µM) | 0.031 (≈ 0.0826 µM) | 0.125 (≈ 0.333 µM) | 0.5 (≈ 1.33 µM) | 0.5 (≈ 1.33 µM) | 0.125 (≈ 0.333 µM) | 0.031 (≈ 0.0826 µM) | 0.125 (≈ 0.333 µM) | 0.031 (≈ 0.0826 µM) | 0.031 (≈ 0.0826 µM) | 0.031 (≈ 0.0826 µM) | 0.125 (≈ 0.333 µM) | COc1c(N2CCNC(C)C2)c(F)cc2c(=O)c(C(=O)O)cn(C3CC3)c12 (configuration not stated) [GATIFLOXACIN] | MIC50 (Mycoplasma genitalium [2]; read-out: MIC50): 0.25 µg/mL (≈ 0.666 µM); MIC90 (Mycoplasma genitalium [2]; read-out: MIC90): 0.25 µg/mL (≈ 0.666 µM); MIC (Mycoplasma genitalium [21]; read-out: MIC): 0.125 µg/mL (≈ 0.333 µM); MIC (Mycoplasma genitalium [22]): 0.031 µg/mL (≈ 0.0826 µM); MIC (Mycoplasma genitalium [23]): 0.031 µg/mL (≈ 0.0826 µM); MIC (Mycoplasma genitalium [24]): 0.031 µg/mL (≈ 0.0826 µM)
0.063 (≈ 0.19 µM) | 0.063 (≈ 0.19 µM) | 0.004 (≈ 0.0121 µM) | 0.063 (≈ 0.19 µM) | 0.004 (≈ 0.0121 µM) | 0.063 (≈ 0.19 µM) | 0.063 (≈ 0.19 µM) | 0.063 (≈ 0.19 µM) | 0.063 (≈ 0.19 µM) | 0.063 (≈ 0.19 µM) | 0.004 (≈ 0.0121 µM) | 2 (≈ 6.04 µM) | 8 (≈ 24.1 µM) | 0.004 (≈ 0.0121 µM) | 0.063 (≈ 0.19 µM) | 0.004 (≈ 0.0121 µM) | 0.063 (≈ 0.19 µM) | 0.063 (≈ 0.19 µM) | 0.063 (≈ 0.19 µM) | 0.004 (≈ 0.0121 µM) | O=C(O)c1cn(C2CC2)c2cc(N3CCNCC3)c(F)cc2c1=O [CIPROFLOXACIN] | MIC (Mycoplasma genitalium [21]; read-out: MIC): 0.004 µg/mL (≈ 0.0121 µM); MIC (Mycoplasma genitalium [22]): 0.063 µg/mL (≈ 0.19 µM); MIC (Mycoplasma genitalium [23]): 0.063 µg/mL (≈ 0.19 µM); MIC (Mycoplasma genitalium [24]): 0.063 µg/mL (≈ 0.19 µM)
